Experimental data from publication PMC5690597, “Suppression and resolution of autoimmune arthritis by rhesus θ-defensin-1, an immunomodulatory macrocyclic peptide” (PLoS ONE, 2017).

Test system: DA/OlaHsd rats with pristane-induced arthritis
Test: Pristane-induced arthritis (PIA), established disease (AS ≥ 3)
Format: in vivo, rat
Details: for effect on arthritis progression by day 3 of treatment compared to vehicle controls: MTX 0.25 mg/kg i.p. q3d, etanercept 0.4 mg/kg s.c. q3d, P < 0.05; for rate of complete disease resolution on day 11, comparison with RA drugs: RTD-1 s.c. (4 of 16), MTX 0.25 mg/kg i.p. q3d (1 of 22), etanercept 0.4 mg/kg s.c. q3d (0 of 21), saline 0 of 19, 2 independent experiments
Method: Female DA/OlaHsd (D blood group allele and Agouti, also known as Dark Agouti), rats were obtained from Harlan Laboratories (Indianapolis, IN). Animals were allowed to acclimate for 48–72 hours prior to experimental use. Animals were fed standard chow ad lib during a 12-hour day/night cycle. PIA was induced in 5–7 week old animals (90–100 gm) by intradermal injection of 250 μl pristane (Sigma) divided into 3–5 sites at the base of the tail. Animals were monitored daily and disease severity of each limb was scored 0–4 using the method of Brand et al.. The severity scores for all limbs of individual animals were totaled to give an individual’s arthritis severity score (AS) ranging from zero for normal animals to maximum disease score of sixteen. […] In three separate trials, treatment was also blinded to scorers. […] Treatment with saline (vehicle), RTD-1, or anti-arthritic agents was randomized and initiated when an animal first presented with an AS of 3 or more. RTD-1 was administered subcutaneously with doses ranging from 0.2 to 5.0 mg/kg in an injection volume of 0.5 ml at intervals ranging from once a day (qd) to once every seven days (q7d). MTX was administered at 0.25 mg/kg by intraperitoneal injection q3d. Etanercept was administered at 0.4 mg/kg by subcutaneous injection q3d.

Row | Compound | effect on arthritis progression by day 3 of treatment compared to vehicle controls | rate of complete disease resolution on day 11, comparison with RA drugs
1 | CN(Cc1cnc2nc(N)nc(N)c2n1)c1ccc(C(=O)N[C@@H](CCC(=O)O)C(=O)O)cc1 [MTX, Methotrexate, reference compound] | limited the progression of arthritis | 4.5%
2 | Etanercept [reference compound] | limited the progression of arthritis | 0%
